Some results are limits rather than exact numbers.

The test has as its target T1, HPK1 (Homo sapiens, UniProt Q92918).
T1 construct: purchased SignalChem M23-11G
T1 sequence (Q92918 1-346 limits assumed): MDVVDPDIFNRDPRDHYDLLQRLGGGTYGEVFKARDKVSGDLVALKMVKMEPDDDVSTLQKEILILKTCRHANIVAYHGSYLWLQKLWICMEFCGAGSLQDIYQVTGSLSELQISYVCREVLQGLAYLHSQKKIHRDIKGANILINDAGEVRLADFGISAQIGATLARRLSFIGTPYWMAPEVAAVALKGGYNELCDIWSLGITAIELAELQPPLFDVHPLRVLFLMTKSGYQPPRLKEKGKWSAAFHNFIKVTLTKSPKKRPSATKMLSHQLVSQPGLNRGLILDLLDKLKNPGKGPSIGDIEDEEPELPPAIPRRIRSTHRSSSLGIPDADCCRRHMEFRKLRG
The test can be described thus: HPK1 Kinase Binding Assay. Conditions: LanthaScreen tracer 222, one hour incubation at 25 °C.

`COc1cccc(F)c1-c1nccc(C(=O)Nc2ccc(F)cc2N2C[C@@H](N)C[C@H]2CO)n1` [Example 92, N-(2-((2S,4S)-4-Amino-2-(hydroxymethyl)pyrrolidin-1-yl)-4-fluorophenyl)-2-(2-fluoro-6-methoxyphenyl)pyrimidine-4-carboxamide]: the Ki is under 100 nM.

As to `N#Cc1cnc(N2CCCC2)cc1-c1ccc(NC(=O)c2ccnc(-c3c(F)cccc3F)n2)c(N2C[C@@H](N)C[C@H]2CO)c1` [Example 93, N-(2-((2S,4S)-4-Amino-2-(hydroxymethyl)pyrrolidin-1-yl)-4-(5-cyano-2-(pyrrolidin-1-yl)pyridin-4-yl)phenyl)-2-(2,6-difluorophenyl)pyrimidine-4-carboxamide], the Ki is under 100 nM.

Regarding `N#CC1(c2ccc(NC(=O)c3ccnc(-c4c(F)cccc4F)n3)c(N3C[C@@H](N)C[C@H]3CO)c2)CC1` [Example 94, N-(2-((2S,4S)-4-Amino-2-(hydroxymethyl)pyrrolidin-1-yl)-4-(1-cyanocyclopropyl)phenyl)-2-(2,6-difluorophenyl)pyrimidine-4-carboxamide], the Ki was under 100 nM.

For the molecule `N#Cc1ccncc1-c1ccc(NC(=O)c2ccnc(-c3c(F)cccc3OC(F)F)n2)c(N2C[C@@H](N)C[C@H]2CO)c1` [Example 95, N-(2-((2S,4S)-4-Amino-2-(hydroxymethyl)pyrrolidin-1-yl)-4-(4-cyanopyridin-3-yl)phenyl)-2-(2-(difluoromethoxy)-6-fluorophenyl)pyrimidine-4-carboxamide], the Ki is under 100 nM. The result for `N#Cc1ccncc1-c1ccc(NC(=O)c2ccnc(-c3c(F)cccc3C3CC3)n2)c(N2C[C@@H](N)C[C@H]2CO)c1` [Example 97, N-(2-((2S,4S)-4-Amino-2-(hydroxymethyl)pyrrolidin-1-yl)-4-(4-cyanopyridin-3-yl)phenyl)-2-(2-cyclopropyl-6-fluorophenyl)pyrimidine-4-carboxamide] reads under 100 nM; that for `CCOc1cccc(F)c1-c1nccc(C(=O)Nc2ccc(-c3cnccc3C#N)cc2N2C[C@@H](N)C[C@H]2CO)n1` [Example 98, N-(2-((2S,4S)-4-Amino-2-(hydroxymethyl)pyrrolidin-1-yl)-4-(4-cyanopyridin-3-yl)phenyl)-2-(2-ethoxy-6-fluorophenyl)pyrimidine-4-carboxamide], under 100 nM; that for `COc1cccc(F)c1-c1nccc(C(=O)Nc2ccc(-c3cnccc3C#N)cc2N2C[C@]3(CO)C[C@H]2CN3C)n1` [Example 99, N-(4-(4-Cyanopyridin-3-yl)-2-((1S,4S)-4-(hydroxymethyl)-5-methyl-2,5-diazabicyclo [2.2.1]heptan-2-yl)phenyl)-2-(2-fluoro-6-methoxyphenyl)pyrimidine-4-carboxamide], under 100 nM. `COc1cccc(F)c1-c1nccc(C(=O)Nc2ccc(-c3cnccc3C#N)cc2N2CCO[C@H](CO)C2)n1` [Example 100, (S)-N-(4-(4-Cyanopyridin-3-yl)-2-(2-(hydroxymethyl)morpholino)phenyl)-2-(2-fluoro-6-methoxyphenyl)pyrimidine-4-carboxamide] registered a Ki of under 100 nM.

For the molecule `COc1cccc(F)c1-c1nccc(C(=O)Nc2ccc(-c3cnccc3C#N)cc2N2CCO[C@@H](CN(C)C)C2)n1` [Example 101, (S)-N-(4-(4-Cyanopyridin-3-yl)-2-(2-((dimethylamino)methyl)morpholino)phenyl)-2-(2-fluoro-6-methoxyphenyl)pyrimidine-4-carboxamide], the Ki was under 100 nM.

Molecule `COc1cccc(F)c1-c1nccc(C(=O)Nc2ccc(-c3cnccc3C#N)cc2N2CCO[C@H](CC#N)C2)n1` [Example 102, (R)-N-(2-(2-(Cyanomethyl)morpholino)-4-(4-cyanopyridin-3-yl)phenyl)-2-(2-fluoro-6-methoxyphenyl)pyrimidine-4-carboxamide] gave a Ki of under 100 nM. The result for `COc1cccc(F)c1-c1nccc(C(=O)Nc2ccc(-c3cnccc3C#N)cc2N2CCN3C(=O)OC[C@H]3C2)n1` [Example 103, (R)-N-(4-(4-Cyanopyridin-3-yl)-2-(3-oxotetrahydro-3H-oxazolo[3,4-a]pyrazin-7(1H)-yl)phenyl)-2-(2-fluoro-6-methoxyphenyl)pyrimidine-4-carboxamide] reads under 100 nM. Under `COc1cccc(F)c1-c1nccc(C(=O)Nc2cc(F)ccc2N2CCN[C@H](CO)C2)n1` [Example 104, (S)-N-(5-Fluoro-2-(3-(hydroxymethyl)piperazin-1-yl)phenyl)-2-(2-fluoro-6-methoxyphenyl)pyrimidine-4-carboxamide] stands under 100 nM; under `COCC1CN(c2cc(-c3cnccc3C#N)ccc2NC(=O)c2ccnc(-c3c(F)cccc3OC)n2)C1` [Example 105, N-(4-(4-Cyanopyridin-3-yl)-2-(3-(methoxymethyl)azetidin-1-yl)phenyl)-2-(2-fluoro-6-methoxyphenyl)pyrimidine-4-carboxamide], under 100 nM; under `COc1cccc(F)c1-c1nccc(C(=O)Nc2ccc(-c3cnccc3C#N)cc2N2CC[C@H]2CO)n1` [Example 106, (S)-N-(4-(4-Cyanopyridin-3-yl)-2-(2-(hydroxymethyl)azetidin-1-yl)phenyl)-2-(2-fluoro-6-methoxyphenyl)pyrimidine-4-carboxamide], under 100 nM. Take `COc1cccc(F)c1-c1nccc(C(=O)Nc2ccc(-c3cnccc3C#N)cc2N2CC[C@@H]2CN(C)C)n1` [Example 107, (R)-N-(4-(4-Cyanopyridin-3-yl)-2-(2-((dimethylamino)methyl)azetidin-1-yl)phenyl)-2-(2-fluoro-6-methoxyphenyl)pyrimidine-4-carboxamide]: the Ki is under 100 nM.

Turning to `COc1cccc(F)c1-c1nccc(C(=O)Nc2ccc(-c3cnccc3C#N)cc2N2CCN(C)CC2)n1` [Example 108, N-(4-(4-Cyanopyridin-3-yl)-2-(4-methylpiperazin-1-yl)phenyl)-2-(2-fluoro-6-methoxyphenyl)pyrimidine-4-carboxamide], the Ki is under 100 nM. In turn, `COc1cccc(F)c1-c1nccc(C(=O)Nc2ccc(-c3cnccc3C#N)cc2N2CCN(CCO)CC2)n1` [Example 109, N-(4-(4-Cyanopyridin-3-yl)-2-(4-(2-hydroxyethyl)piperazin-1-yl)phenyl)-2-(2-fluoro-6-methoxyphenyl)pyrimidine-4-carboxamide] yielded a Ki of under 100 nM. In turn, `COc1cccc(F)c1-c1nccc(C(=O)Nc2cc(F)c(C(C)C)cc2N2CCN[C@H](CO)C2)n1` [Example 110, (S)-N-(5-Fluoro-2-(3-(hydroxymethyl)piperazin-1-yl)-4-isopropylphenyl)-2-(2-fluoro-6-methoxyphenyl)pyrimidine-4-carboxamide] returned a Ki of under 100 nM.

For the origin of these results see EP3755703B1, “N-(PHENYL)-2-(PHENYL)PYRIMIDINE-4-CARBOXAMIDE DERIVATIVES AND RELATED COMPOUNDS AS HPK1 INHIBITORS FOR TREATING CANCER” (Incyte Corporation, priority 2018, dated 2019).
